# According to patent US8771641B2, “Aryloxyanilide imaging agents” (priority 2009, dated 2014):
# Columns and labels:
# [1] = cited from earlier work
# PBR [2] = target: PBR (Homo sapiens, UniProt P30536); settings: in vivo; cited from earlier work
# PBR [3] = target: T1, PBR (Rattus norvegicus, UniProt P16257); experiment: In vivo biodistribution model: OB:striatum uptake; design: species or system Wistar rats; settings: injection via lateral tail vein, 2, 10, 30 or 60 min, in words, compared with PBR06
# T1 construct: OB is known to express higher levels of PBR compared with other areas of rat brain; from tissue; host or cells: living Wistar rats; olfactory bulb and striatum sampled
# Protocol: Example 11 describes the rat biodistribution model that was used to compare in vivo imaging agents of the invention with PBR06. […] As OB is known to express higher levels of PBR compared with other areas of rat brain (see “Handbook of Substance Abuse” by Tarter, Ammerman and Ott; Springer 1998: 398-99) the ratio OB:striatum is a measure of specificity of test compound uptake.
# PBR06 (synthesised according to Briard et al J Med Chem 2009; 52: 688-699) and in vivo imaging agents 1-3 were tested in an in vivo biodistribution model and their respective biodistributions compared.
# Adult male Wistar rats (200-300 g) were injected with 1-3 MBq of test compound via the lateral tail vein. At 2, 10, 30 or 60 min (n=3) after injection, rats were euthanised and tissues or fluids were sampled for radioactive measurement on a gamma counter.
# [4] = Metabolism assay: intact test compound in rat brain by HPLC; assay type: in vivo, Wistar rats; settings: 60 minutes post-injection; for proportion intact in the brain (in words): compared with PBR06
# Protocol: Example 12 describes the assay used to evaluate the amount of intact test in vivo imaging agent in rat brain at 60 minutes post-injection.
# Brain tissue samples were collected from adult male Wistar rats (200-300 g) at 60 minutes after injection of test in vivo imaging agent. These samples were then processed via solvent extraction (see below) to extract the ^18F-labelled parent along with any ^18F-labelled metabolites, before introduction to the HPLC.
# Brain (minus cerebellum +medulla pons) was homogenized with 10 mls of ice-cold Acetonitrile (5000 rpm for 5 mins) to extract all the ^18F-labelled species. The resulting supernatant was then evaporated to dryness (rotary evaporation at 40° C.), concentrated in 2.5 mls of mobile phase, filtered and 1 ml was injected onto the HPLC.
# The HPLC set up for ^18F analysis was connected to a dual BGO radio & UV detector. A μBondapak C18 prep column was used having dimensions 7.8×300 mm; 10 μm; 125 Å. An isocratic elution system was used using between 30-40% water and between 60-70% acetonitrile. The flow rate was 3 ml/min. The aqueous to organic phase ratio was varied for each test in vivo imaging agent to obtain a parent peak at retention time at or around 10 min±2 min.
# [5] = Briard et al J Med Chem 2009; cited from earlier work
# Wistar rat heart PBR = Wistar rat heart PBR (Rattus norvegicus, UniProt P16257); experiment: biochemical
# Sequence of Wistar rat heart PBR (P16257 whole entry): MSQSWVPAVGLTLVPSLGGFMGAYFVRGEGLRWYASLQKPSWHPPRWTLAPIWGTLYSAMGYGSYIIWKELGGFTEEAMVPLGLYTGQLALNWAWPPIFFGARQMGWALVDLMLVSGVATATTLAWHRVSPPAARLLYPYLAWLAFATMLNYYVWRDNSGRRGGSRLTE
# Protocol: Affinity for PBR was screened using a method adapted from Le Fur et al (Life Sci. 1983; USA 33: 449-57).
# Each test compound (dissolved in 50 mM Tris-HCl, pH 7.4, 10 mM MgCl2 containing 1% DMSO) competed for binding to Wistar rat heart PBR against 0.3 nM [^3H] […] The reaction was carried out in 50 mM Tris-HCl, pH 7.4 10 mM MgCl2 for 15 minutes at 25° C.
# T1 sequence (P16257 whole entry): as above
# Sequence of PBR (Homo sapiens, UniProt P30536) (P30536 whole entry, species assumed): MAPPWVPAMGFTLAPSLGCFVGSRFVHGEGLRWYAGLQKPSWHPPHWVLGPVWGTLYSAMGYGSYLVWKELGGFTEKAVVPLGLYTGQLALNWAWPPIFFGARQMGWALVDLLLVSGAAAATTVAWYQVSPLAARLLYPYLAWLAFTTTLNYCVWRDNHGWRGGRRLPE
Structure (SMILES),protein binding [1],specific to non-specific binding (PBR [2]),OB:striatum uptake (ratio of uptake in olfactory bulb compared to striatum) (PBR [3]),percentage of radioactivity in the brain representing intact test compound [4] [%],metabolism in the periphery [5],penetration of metabolites through the blood-brain barrier [5],Ki (Wistar rat heart PBR) [nM],proportion intact in the brain (in words) [4]
CC[C@@H](C)N([11CH3])C(=O)c1cc2ccccc2c(-c2ccccc2Cl)n1 [(R)-[^11C]PK11195],high protein binding,low specific to non-specific binding,,,,,,
"COc1ccc(OC)c(CN(C(=O)C[18F])c2ccccc2Oc2ccccc2)c1 [PBR06, reference compound]",,,less than optimal for in vivo imaging,90,metabolised quite rapidly in the periphery,do not penetrate the blood-brain barrier,0.28,
O=C(C[18F])N(Cc1cccc2c1OCC2)c1ccccc1Oc1ccccc1 [in vivo imaging agent 1],,,taken up relatively more in the OB as compared with the striatum,93,,,0.31,even higher proportion intact in the brain at 60 minutes post-injection as compared with PBR06
O=C(C[18F])N(Cc1cccc2c1OCO2)c1ccccc1Oc1ccccc1 [in vivo imaging agent 2],,,comparable with PBR06,92,,,2.03,even higher proportion intact in the brain at 60 minutes post-injection as compared with PBR06
O=C(C[18F])N(Cc1cccc2c1OCCO2)c1ccccc1Oc1ccccc1 [in vivo imaging agent 3],,,comparable with PBR06,82,,,1.14,
CC1(C)Cc2cccc(CN(C(=O)C[18F])c3ccccc3Oc3ccccc3)c2O1 [in vivo imaging agent 4],,,,,,,2.66,
